Experimental findings from ChEMBL document CHEMBL1127502, “Mixed 5-HT1A/D-2 activity of a new model of arylpiperazines: 1-aryl-4-[3-(1,2-dihydronaphthalen-4-yl)-n-propyl]piperazines. 1. Synthesis and structure-activity relationships” (J Med Chem, 1994) are described below.

For test [1], the target named is T1, D(2) dopamine receptor (Rattus norvegicus, UniProt P61169). Put plainly: Inhibition of binding of radioligand [3H]spiroperidol to dopamine D2 receptor in rat striatal membranes. The class given is cell membranes, Membrane.
T1 sequence (P61169 whole entry): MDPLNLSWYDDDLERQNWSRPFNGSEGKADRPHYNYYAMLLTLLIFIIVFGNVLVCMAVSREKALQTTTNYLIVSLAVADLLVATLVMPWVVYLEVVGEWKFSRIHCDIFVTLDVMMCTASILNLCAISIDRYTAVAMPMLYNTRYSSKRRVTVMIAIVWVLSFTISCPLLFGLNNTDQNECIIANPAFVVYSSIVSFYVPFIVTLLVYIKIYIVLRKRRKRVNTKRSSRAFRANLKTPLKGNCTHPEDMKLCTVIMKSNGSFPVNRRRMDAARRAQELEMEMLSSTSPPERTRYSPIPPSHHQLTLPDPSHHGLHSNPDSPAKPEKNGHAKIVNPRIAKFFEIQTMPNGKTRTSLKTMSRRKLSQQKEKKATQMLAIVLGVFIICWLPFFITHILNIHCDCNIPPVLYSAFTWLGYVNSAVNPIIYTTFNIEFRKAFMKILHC
In test [2] the target is Serotonin 2 (5-HT2) receptor (Rattus norvegicus, UniProt P30994+P08909+P14842). Put plainly: Inhibition of binding of radioligand [3H]ketanserin to 5-hydroxytryptamine 2 receptor in rat cerebral cortex. The class given is tissue-based.
The target in test [3] is T2, 5-hydroxytryptamine receptor 1A (Rattus norvegicus, UniProt P19327).
T2 sequence (P19327 whole entry): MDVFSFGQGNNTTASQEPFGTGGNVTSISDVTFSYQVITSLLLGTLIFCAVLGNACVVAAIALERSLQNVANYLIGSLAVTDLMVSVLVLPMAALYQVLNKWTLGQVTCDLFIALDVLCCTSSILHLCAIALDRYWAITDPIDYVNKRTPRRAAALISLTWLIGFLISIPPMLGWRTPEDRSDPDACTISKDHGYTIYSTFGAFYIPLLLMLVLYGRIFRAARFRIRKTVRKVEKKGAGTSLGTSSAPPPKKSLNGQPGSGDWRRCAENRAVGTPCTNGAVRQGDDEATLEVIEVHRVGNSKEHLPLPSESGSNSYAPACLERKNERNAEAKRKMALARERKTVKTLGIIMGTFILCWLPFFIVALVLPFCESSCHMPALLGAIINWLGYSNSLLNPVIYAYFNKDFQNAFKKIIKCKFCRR
Put plainly: In vitro ability to inhibit binding of radioligand [3H]8-OH-DPAT to 5-hydroxytryptamine 1A receptor in rat cerebral cortex. The class given is tissue-based.

For test [4], the system named is Rattus norvegicus. Put plainly: Effective dose required to inhibit behavior effects induced by 8-OH-DPAT in reserpinized rats after subcutaneous administration. The class given is functional. The following applies: sc.
The target of test [5] is T1, D(2) dopamine receptor. Put plainly: In vitro ability to inhibit binding of radioligand [3H]spiroperidol to dopamine D2 receptor in rat corpora striata.
Test [6] has as its target T1, D(2) dopamine receptor. Put plainly: In vitro ability to inhibit binding of radioligand [3H]spiroperidol to dopamine D2 receptor in rat striatal membranes. The class given is cell membranes, Membrane.
Test [7] deals with T1, D(2) dopamine receptor. Put plainly: In vito ability to inhibit binding of radioligand [3H]spiroperidol to dopamine D2 receptor in rat corpora striata.

The structures appear in SMILES notation. A value given as a limit tells only on which side of the number the result lay.

On to `COc1cccc2c1C(CCCN1CCN(c3ccccc3)CC1)=CCC2`, for which the IC50 in test [1] is 303 nM; in test [2] it was 204 nM.

In the case of `COc1cccc2c1C(CCCN1CCN(c3cccc(Cl)c3)CC1)=CCC2`, the IC50 was 31.4 nM in test [3], 484 nM in test [1] and 1340 nM in test [2].

As for `COc1ccc2c(c1)CCC=C2CCCN1CCN(c2cccc(Cl)c2)CC1`, the half-inhibitory concentration (IC50) in test [3] stood at 131 nM; in test [1], 768 nM; in test [2] it was 133 nM.

On to `COc1ccc2c(c1)CCC=C2CCCN1CCN(c2ccccc2)CC1`, for which the IC50 in test [3] came to 147 nM; in test [1], 777 nM; in test [2], 119 nM.

Consider `COc1ccc2c(c1)CCC=C2CCCN1CCN(c2ccccn2)CC1`, for which the IC50 in test [3] is 63.6 nM; in test [1] it was 778 nM; in test [2], 146 nM.

As to `COc1ccccc1N1CCN(CCCC2=CCCc3cccc(OC)c32)CC1`, the IC50 came to 8.8 nM in test [3], 17.4 nM in test [1] and 770 nM in test [2].

Consider `COc1ccc2c(c1)CCC=C2CCCN1CCN(c2cc(OC)ccc2OC)CC1`, for which the values for the IC50 in test [3], in test [1] and in test [2] were 161 nM, 201 nM and 932 nM, respectively.

Turning to `COc1ccc2c(c1)CCC=C2CCCN1CCN(c2cccc(C(F)(F)F)c2)CC1`, the IC50 in test [3] stood at 138 nM; in test [1], 1290 nM; in test [2] it was 1170 nM.

For `COc1ccc2c(c1)CCC=C2CCCN1CCN(c2ccccc2OC)CC1`, in test [4], the ED50 amounted to 0.76 mg/kg. The IC50 was 2 nM in test [3], 90.6 nM in test [1] and 391 nM in test [2]. Further, the Ki in test [3] is 1.78 nM; in test [5], 22.4 nM.

Consider `COc1cccc2c1C(CCCN1CCN(c3cccc(C(F)(F)F)c3)CC1)=CCC2`, for which the ED50 in test [4] amounted to 24.2 mg/kg. Moreover, the IC50 in test [3] came to 55.9 nM; in test [1], 644 nM; in test [2], 2370 nM.

Take `COc1ccccc1N1CCN(CCCC2=CCCc3ccccc32)CC1`: the IC50 in test [3] stood at 15.7 nM; in test [1], 14.7 nM; in test [2] it was 104 nM.

The molecule `COc1ccccc1N1CCN(CCCCN2C(=O)c3ccccc3C2=O)CC1` [NAN-190] gave a Ki in test [6] of 9.55 nM.

In the case of `COc1ccc2c(c1)CCC=C2CCCN1CCNCC1`, the IC50 in test [3], in test [1] and in test [2] was over 10000 nM each time.

On to `COc1cccc2c1C(CCCN1CCN(c3ccccn3)CC1)=CCC2`, for which the Ki is 29.5 nM in test [7] and 1.26 nM in test [3]. Also, the results for the IC50 in test [3], in test [1] and in test [2] were 1.4 nM, 119 nM and 205 nM, respectively.
